Experiments:
[1] = system: [^3 H]-adenosine uptake in erythrocytes; experiment: Inhibitory Effect on [^3 H]-Adenosine Uptake (washed erythrocytes); type: cell-based, human (healthy male adult); conditions: Homo sapiens; erythrocyte suspension, 1 hour preincubation at room temperature, 10 seconds uptake; read-out: [^3 H]-Adenosine Uptake Inhibition IC50
Method: A blood sample was obtained from a healthy adult under 40 years of age by brachial venipuncture using a syringe containing sodium citrate and subjected to centrifugation to obtain washed erythrocytes. […] Ten seconds later, 200 μl of a dilazep solution (1 mg/ml) was added to stop the reaction. […] The supernatant was removed and the erythrocyte fraction was separated. […] The concentration of the test compound which inhibits the [^3 H]-adenosineuptake by 50% (IC50) was calculated.

[2] = target: T1, [^3 H]-Nitrobenzylthioinosine (NBI) binding, cerebral cortex homogenate (Cavia porcellus, UniProt H0V4R7); experiment: Inhibitory Effect on [^3 H]-Nitrobenzylthioinosine (NBI) Binding; parameters: species or system guinea pig (male, Hartley strain); conditions: guinea pig cerebral cortex, 1.5 nM [^3 H]-NBI, 25° C., 30 minutes, Cheng-Prusoff
T1 construct: The cerebral cortex of a male guinea pig of Hartley strain was homogenized; from tissue; host or cells: cerebral cortex of male Hartley guinea pig (washed membrane precipitate)
T1 sequence (H0V4R7 1-461): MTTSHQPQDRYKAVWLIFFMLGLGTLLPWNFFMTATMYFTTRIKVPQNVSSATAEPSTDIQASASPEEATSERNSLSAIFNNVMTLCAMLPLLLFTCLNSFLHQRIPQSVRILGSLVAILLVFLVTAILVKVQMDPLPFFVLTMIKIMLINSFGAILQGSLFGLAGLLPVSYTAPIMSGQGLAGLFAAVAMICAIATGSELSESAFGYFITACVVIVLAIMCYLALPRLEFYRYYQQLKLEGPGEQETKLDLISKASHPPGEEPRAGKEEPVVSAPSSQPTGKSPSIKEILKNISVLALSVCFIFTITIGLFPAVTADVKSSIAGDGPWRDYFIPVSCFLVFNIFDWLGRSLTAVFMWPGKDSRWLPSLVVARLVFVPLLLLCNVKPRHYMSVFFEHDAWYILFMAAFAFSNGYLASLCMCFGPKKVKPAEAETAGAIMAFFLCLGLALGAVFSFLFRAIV
Method: The cerebral cortex of a male guinea pig of Hartley strain was homogenized with an ice-cooled 50 mM tris-HCl buffer (pH 7.4) in an amount of 25 times (w/v) that of the tissue. The homogenate was centrifuged (30,000×g, 4° C., 20 mins.), and the supernatant was discarded. To the precipitate was added the same amount of the buffer, followed by homogenization and then centrifugation in the same manner as above. The obtained precipitate was suspended in 20 times as much buffer as the precipitate to prepare a suspension for testing. To a DMSO solution of a test compound were added 1.5 nM of [^3 H]-NBI and 5 mg (wet basis) of the tissue homogenate, and the mixture was allowed to stand at 25° C. for 30 minutes. To the mixture was added 4 ml of an ice-cooled buffer, followed by rapid filtration with suction through a glass filter (GF/C, produced by Whatman Ltd.) or a Ready filter (produced by Beckman Co.) to stop the reaction. The filter was transferred to a scintillation vial, and after drying, Scintisol EX-H was added thereto. The radioactivity was measured with a liquid scintillation counter. The binding inhibitory activity was expressed in terms of an inhibition constant (Ki value) as calculated according to Cheng-Prusoff's formula.

dd-strain male mice = experiment: Acute Toxicity Test; type: in vivo; conditions: mortality seven days after administration
Method: A test compound was orally or intraperitoneally administered to groups of dd-strain male mice weighing 20±1 g, each group consisting of three mice. […] The MLD was >1000 mg/kg for oral administration of Compound 10 and was >100 mg/kg for intraperitoneal administration of Compound 10.

[3] = system: Masugi Nephritis in ddY-strain male mice; experiment: Effect on Increase of Albumin Excretion in Masugi Nephritis; type: in vivo, mouse
Method: Mouse nephrotoxin (hereinafter referred to as NT) was prepared according to the method of Ito, et al. [The Japanese Journal of Nephrology, 23, 25-36 (1981)]. That is, glomerular basement membrane (hereinafter referred to as GBM) was isolated from mouse kidney and digested with trypsin (Sigma). The digested GBM was subjected to ultracentrifugation under cooling, and the supernatant was dialyzed against distilled water, followed by lyophilization. The lyophile product was intracutaneously injected as an antigen into four foot pads of a rabbit together with Freund's complete adjuvant (Iatron; hereinafter referred to as FCA) once a week for 4 weeks for immunization. The whole blood was drawn from the immunized rabbit, and serum was separated and inactivated at 56° C. for 30 minutes to prepare NT.
In this test, ddY-strain male mice weighing 29-36 g were used. For previous immunization, 0.25 ml of an FCA emulsion containing 0.25 mg of rabbit immunoglobulin-globulin (IgG, Sigma) was intraperitoneally injected into mice. Nephritis was induced by intravenous injection of 0.075 ml of NT through the tail vein 4 and 11 days after the previous immunization. […] The supernatant was analyzed for albumin using an autoanalyzer (Olympus). […]
The results are shown in Table 7 as the means±standard error of each group consisting of 11 mice. Statistical significance was evaluated by Student's t-test.

[4] = system: Diabetic Nephropathy (STZ) in ddY-strain male mice; experiment: Effect on Increase of Albumin Excretion in Diabetic Nephropathy; type: in vivo, mouse; conditions: for Urinary Albumin Content: mean, standard error, control 333 ± 30, normal 80 ± 3
Method: In this test, ddY-strain male mice weighing 25-28 g were used. Diabetes was induced according to the method of Tsuchida, et al. [Jin To Toseki (Kidney and Dialysis), 31, 363-366 (1991)]. That is, streptozotocin (5 mg/ml, Sigma; hereinafter referred to as STZ) dissolved in 0.05 M citrate buffer was intravenously injected into mice through the tail vein at a dose of 10 ml/kg. On the fourth day after the STZ administration, 30 μl of blood was collected from the tail vein of the mice and the blood glucose was determined using Glutestsensor (Sanwa Kagaku). The animals were divided into three groups based on the blood glucose level. Twelve weeks after the STZ administration, each mouse was put into a metabolic cage and received oral administration of 0.5 ml/10 g of distilled water twice at an interval of 12 hours. Urine was collected for 24 hours, and after measurement of the volume, the urine was centrifuged under cooling (3000 rpm, 4° C. ) for 5 minutes. The supernatant was analyzed for albumin using an autoanalyzer (Olympus). A test compound was orally administered once a day for 11 weeks, starting on the fifth day after the STZ administration. The normal group and the control group received oral administration of a solvent (5% methyl cellulose solution). The results are shown in Table 8 as the means standard error of each group. Statistical significance was evaluated by Aspin-Welch's test for the difference between the control group and the normal group and by Steel's test for the difference between the control group and the test compound-administered group.

SMILES | IC50 [1] [nM] | Ki [2] [nM] | also measured
COc1cc2nc(N(CCO)CCO)nc(N3CCC(n4c(=O)c5cc(C)ccc5n(C)c4=O)CC3)c2cc1OC [Compound 6, 3-{1-[2-Bis(2-hydroxyethyl)amino-6,7-dimethoxy-4-quinazolinyl]-4-piperidinyl}-1,2,3,4-tetrahydro-1,6-dimethyl-2,4-dioxoquinazoline] | 29 | 1.5 | 
COc1cc2nc(N(C)CCN(C)C)nc(N3CCC(n4c(=O)c5cc(C)ccc5n(C)c4=O)CC3)c2cc1OC [Compound 7, 3-{1-{2-[N-(2-Dimethylaminoethyl)-N-methylamino]-6,7-dimethoxy-4-quinazolinyl}-4-piperidinyl}-1,2,3,4-tetrahydro-1,6-dimethyl-2,4-dioxoquinazoline] | 62 | 3.8 | 
COc1cc2nc(N(C)C)nc(N3CCC(n4c(=O)c5cc(C)ccc5n(C)c4=O)CC3)c2cc1OC [Compound 5, 3-[1-(2-Dimethylamino-6,7-dimethoxy-4-quinazolinyl)-4-piperidinyl]-1,2,3,4-tetrahydro-1,6-dimethyl-2,4-dioxoquinazoline] |  | 2.6 | 
CCCNc1nc(N2CCC(n3c(=O)c4cc(C)ccc4n(C)c3=O)CC2)c2cc(OC)c(OC)cc2n1 [Compound 8, 3-[1-(6,7-Dimethoxy-2-propylamino-4-quinazolinyl)-4-piperidinyl]-1,2,3,4-tetrahydro-1,6-dimethyl-2,4-dioxoquinazoline] | 50 | 1.4 | 
COc1cc2nc(N3CCOCC3)nc(N3CCC(n4c(=O)c5cc(C)ccc5n(C)c4=O)CC3)c2cc1OC [Compound 1, 3-[1-(6,7-Dimethoxy-2-morpholino-4-quinazolinyl)-4-piperidinyl]-1,2,3,4-tetrahydro-1,6-dimethyl-2,4-dioxoquinazoline] | 35 | 2 | 
CCOc1cc2nc(N3CCOCC3)nc(N3CCC(n4c(=O)c5cc(C)ccc5n(C)c4=O)CC3)c2cc1OCC.Cl [Compound 10, 3-[1-(6,7-Diethoxy-2-morpholino-4-quinazolinyl)-4-piperidinyl]-1,2,3,4-tetrahydro-1,6-dimethyl-2,4-dioxoquinazoline hydrochloride] | 97 | 2 | minimum lethal dose (MLD), intraperitoneal (dd-strain male mice; intraperitoneal): > 100 mg/kg; minimum lethal dose (MLD), oral (dd-strain male mice; oral): > 1000 mg/kg; Urinary Albumin Content ([3]; 1 mg/kg oral once a day, mean ± standard error, 11 mice, control 134 ± 9, normal 85 ± 5, marked **): 96 ± 7 mg/kg/24 hr; effect on increase of urinary albumin in nephritis (in words) ([3]; Masugi nephritis, mice): inhibits the increase of urinary albumin in nephritis; Urinary Albumin Content ([4]; 1 mg/kg oral once a day for 11 weeks, 10 animals, * less than 5% vs control): 244 ± 16 mg/kg/24 hr; Urinary Albumin Content ([4]; 10 mg/kg oral once a day for 11 weeks, 9 animals, ** less than 1% vs control): 200 ± 13 mg/kg/24 hr; effect on increase of urinary albumin in diabetic nephropathy (in words) ([4]; STZ diabetic nephropathy, mice): inhibits the increase of urinary albumin in diabetic nephropathy

Further lines, with some results ahead:

IC50 [1] [nM] | Ki [2] [nM] | SMILES | also measured
64 |  | COc1cc2nc(N3CCN(C)CC3)nc(N3CCC(n4c(=O)c5cc(C)ccc5n(C)c4=O)CC3)c2cc1OC [Compound 2, 3-{1-[6,7-Dimethoxy-2-(4-methyl-1-piperazinyl)-4-quinazolinyl]-4-piperidinyl}-1,2,3,4-tetrahydro-1,6-dimethyl-2,4-dioxoquinazoline] | 
72 |  | COc1cc2nc(N3CCC(C(=O)O)CC3)nc(N3CCC(n4c(=O)c5cc(C)ccc5n(C)c4=O)CC3)c2cc1OC [Compound 4, 3-{1-[2-(4-Carboxypiperidino)-6,7-dimethoxy-4-quinazolinyl]-4-piperidinyl}-1,2,3,4-tetrahydro-1,6-dimethyl-2,4-dioxoquinazoline] | 
 | 7.6 | CCOC(=O)C1CCN(c2nc(N3CCC(n4c(=O)c5cc(C)ccc5n(C)c4=O)CC3)c3cc(OC)c(OC)cc3n2)CC1 [Compound 3, 3-{1-[2-(4-Ethoxycarbonylpiperidino)-6,7-dimethoxy-4-quinazolinyl]-4-piperidinyl}-1,2,3,4-tetrahydro-1,6-dimethyl-2,4-dioxoquinazoline] | 

— patent US5948784A, “Quinazoline derivatives” (Kyowa Hakko Kogyo Co., Ltd., priority 1994, dated 1999)
